From US20080242700A1, “Methods and Compositions for Selectin Inhibition” (Wyeth, priority 2007, published 2008)

Molecular target: T1, P-selectin/PSGL-1 interaction (Homo sapiens, UniProt P16109)
T1 construct: comprised of the lectin and epidermal growth factor-like (EGF) domains expressed in CHO cells; made in house; host or cells: CHO cells (P-LE)
T1 sequence (P16109 42-198): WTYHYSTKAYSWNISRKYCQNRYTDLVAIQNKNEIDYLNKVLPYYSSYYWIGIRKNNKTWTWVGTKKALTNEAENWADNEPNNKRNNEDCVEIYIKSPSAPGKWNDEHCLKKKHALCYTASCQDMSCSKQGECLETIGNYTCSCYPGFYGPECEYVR
Experiment: Biacore P-selectin/PSGL-1 inhibition assay (surface plasmon resonance)
Format: binding
Conditions: for inhibition at 250 µM: 250 uM test compound, 500 nM P.LE, immobilized biotinylated PSGL-1 19ek, 10% DMSO, pH 7.4, 25° C.
Description: Surface plasmon resonance assays were performed on a Biacore 3000 instrument (Biacore Inc. Piscataway, N.J.) at 25° C. at a flow rate of 30 μL/minute and each assay consisted of a 60-second equilibration, a 60-μL sample injection (kinject), and a 300-second dissociation.
A purified, monomeric, truncated form of human PSGL-1, “19ek”, that contained all the necessary P-selectin binding determinants (see Goetz, et al., J Cell Biol., 1997, 137: 509-519; and Sako, et al., Cell, 1995, 83: 323-331) was biotinylated via amine chemistry (Sulfo-NHS-LC-Biotin, Peirce) at a unique C-terminal lysine residue (see Somers, et al., Cell, 2000, 103: 467-479) and immobilized on a Biacore SA sensor chip (Biacore Inc.), using an HBS-EP buffer (Biacore Inc.), and the target 600-700 RU. The coated chip was re-equilibrated with an HBS-P buffer (Biacore Inc.) to which 1 mM CaCl2 and 1 mM MgCl2 (both from Fisher) were added to ensure sufficient calcium for the calcium-dependent interaction between the receptor and the ligand.
Test compounds were incubated for 1 hour in a 1.1× Biacore assay buffer. Each solution was centrifuged through a 0.2 μm filter, using a 96-well plate format (Millipore). Glycyrrhizin tri-sodium salt (TCl) was prepared as a positive control in parallel with the test compounds, in the same manner described above.
A soluble recombinant truncated form of human P-selectin, P-LE, comprised of the lectin and epidermal growth factor-like (EGF) domains expressed in CHO cells (see Somers, et al., Cell, 2000, 103: 467-479) was added to each filtered test compound solution. Final concentrations of reagents were 500 nM P.LE, 250 or 500 μM test compound (depending on structure) or 1 mM glycyrrhizin, 10% DMSO, and 1× Biacore buffer ([…], 150 mM NaCl, 1 mM CaCl2, and 1 mM MgCl2 (all reagents from Fisher)), with a pH of 7.4. Compounds active at 250 μM were titrated to further define activity. Test samples were supplied to the Biacore instrument in a 96-well plate.
The Biacore raw data file was exported as a text file to an Excel spreadsheet, where the buffer blanks bracketing the samples were averaged for each Biacore instrument flow cell (Fc), and subtracted from the averaged uninhibited P.LE samples and from all the other samples. The reference signal from Fc1 (uncoated) was then subtracted from its corresponding active (coated) signal for each injection, a process known as double referencing (see Myszka, J Mol. Recognit., 1999, 12(5): 279-284). The percent inhibition of binding was calculated by dividing the reference-subtracted inhibited signal by the reference-subtracted uninhibited signal, subtracting this value from 1, and multiplying the resulting value by 100. The replicate percent inhibition values were averaged and expressed as the mean±standard deviation. The inter-experiment standard deviation of calculated percent inhibitions in the Biacore assay was ±5.

Row | SMILES | inhibition at 250 µM | IC50 (positive control in the Biacore assay)
1 | Cc1ccc2c(C(=O)O)c(O)c(C3Cc4ccccc43)nc2c1C (stereo not drawn) [Compound 2, 2-(1,2-dihydrocyclobutabenzen-1-yl)-3-hydroxy-7,8-dimethyl-quinolin-4-carboxylic acid] | 17% | 
2 | Cc1ccc2c(C(=O)O)c(O)c(C3Cc4ccccc4C3)nc2c1C [Compound 3, 3-hydroxy-2-indan-2-yl-7,8-dimethyl-quinolin-4-carboxylicacid] | 11% | 
3 | CC(C)c1cccc2c(C(=O)O)c(O)c(C3Cc4ccccc4C3)nc12 [Compound 4, 3-hydroxy-2-indan-2-yl-8-isopropyl-quinolin-4-carboxylicacid] | 48% | 
4 | CC1(C)[C@@H](O[C@H]2O[C@H](C(=O)O)[C@@H](O)[C@H](O)[C@H]2O[C@@H]2O[C@H](C(=O)O)[C@@H](O)[C@H](O)[C@H]2O)CC[C@]2(C)[C@H]3C(=O)C=C4[C@@H]5C[C@@](C)(C(=O)O)CC[C@]5(C)CC[C@@]4(C)[C@]3(C)CC[C@@H]12 [Glycyrrhizin, reference compound] |  | 1 mM

Further lines, results first:

Row | inhibition at 250 µM | IC50 (positive control in the Biacore assay) | SMILES
5 | 45% |  | O=C(O)c1c(O)c(C2Cc3ccccc32)nc2c(C(F)(F)F)cccc12 (stereo not drawn) [Compound 1, 2-(1,2-dihydrocyclobutabenzen-1-yl)-3-hydroxy-8-(trifluoro-methyl)quinoline-4-carboxylic acid]
6 | 35% |  | O=C(O)c1c(O)c(C2Cc3ccccc3C2)nc2c(C(F)(F)F)cccc12 [Compound 5, 3-hydroxy-2-indan-2-yl-8-trifluoromethyl-quinoline-4-carboxylic acid]
